What was measured:
Format in all cases: biochemical
Jnk1 = target: T1, Jnk1 (Homo sapiens, UniProt P45983); experiment: AlphaScreen kinase assay, Jnk1; conditions: read-out: IC50, activity toward kinase Jnk1
T1 construct: purchased Upstate Biotechnology

Flt1 = target: T2, Flt1 (Homo sapiens, UniProt P17948); experiment: AlphaScreen kinase assay, Flt1; conditions: read-out: IC50, activity toward kinase Flt1
T2 construct: P1826.pETN6 BI-PTP FLT1 M799-D1165-X WT; His6 (N); made in house; host or cells: E. coli (PTP1B co-expressed)
T2 sequence (P17948 with tags, fused parts or gaps): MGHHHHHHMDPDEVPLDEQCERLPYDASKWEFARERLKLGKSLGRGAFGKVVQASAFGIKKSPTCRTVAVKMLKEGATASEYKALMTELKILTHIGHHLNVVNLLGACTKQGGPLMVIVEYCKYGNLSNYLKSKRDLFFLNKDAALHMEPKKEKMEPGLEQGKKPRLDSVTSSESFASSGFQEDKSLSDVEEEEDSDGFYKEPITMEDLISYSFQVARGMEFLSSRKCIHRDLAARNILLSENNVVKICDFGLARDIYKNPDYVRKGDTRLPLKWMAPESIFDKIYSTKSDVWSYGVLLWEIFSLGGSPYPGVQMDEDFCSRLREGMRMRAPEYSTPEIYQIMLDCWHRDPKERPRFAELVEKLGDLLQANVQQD

B-Raf = target: T3, B-Raf (Homo sapiens, UniProt P15056); experiment: AlphaScreen kinase assay, B-Raf; conditions: read-out: IC50, activity toward kinase B-Raf
T3 construct: purchased Upstate Biotechnology
T3 sequence (P15056 whole entry): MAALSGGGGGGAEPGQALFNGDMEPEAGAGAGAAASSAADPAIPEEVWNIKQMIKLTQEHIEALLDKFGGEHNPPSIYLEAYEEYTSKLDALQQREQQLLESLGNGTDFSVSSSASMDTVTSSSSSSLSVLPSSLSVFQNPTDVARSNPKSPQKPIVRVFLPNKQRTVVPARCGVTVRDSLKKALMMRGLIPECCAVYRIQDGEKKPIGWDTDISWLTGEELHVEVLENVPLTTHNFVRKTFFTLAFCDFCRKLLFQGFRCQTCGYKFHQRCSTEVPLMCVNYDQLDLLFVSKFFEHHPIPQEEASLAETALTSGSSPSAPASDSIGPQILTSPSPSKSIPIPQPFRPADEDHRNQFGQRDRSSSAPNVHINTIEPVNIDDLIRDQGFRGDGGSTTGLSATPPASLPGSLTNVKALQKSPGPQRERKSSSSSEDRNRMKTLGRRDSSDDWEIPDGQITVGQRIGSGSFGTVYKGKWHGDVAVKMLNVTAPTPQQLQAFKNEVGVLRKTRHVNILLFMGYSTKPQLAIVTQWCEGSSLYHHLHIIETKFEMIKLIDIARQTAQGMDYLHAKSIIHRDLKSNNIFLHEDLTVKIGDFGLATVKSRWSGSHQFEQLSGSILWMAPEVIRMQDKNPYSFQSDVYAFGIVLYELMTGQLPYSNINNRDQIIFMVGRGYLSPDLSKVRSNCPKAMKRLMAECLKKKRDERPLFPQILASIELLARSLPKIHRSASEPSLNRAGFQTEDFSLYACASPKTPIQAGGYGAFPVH

Kit = target: T4, Kit (Homo sapiens, UniProt P10721); experiment: AlphaScreen kinase assay, Kit; conditions: read-out: IC50, activity toward kinase Kit
T4 construct: P1332.N6 BI PTP KIT M552-K948-X COD; His6 (N); made in house; host or cells: E. coli (PTP1B co-expressed)
T4 sequence (P10721 with tags, fused parts or gaps): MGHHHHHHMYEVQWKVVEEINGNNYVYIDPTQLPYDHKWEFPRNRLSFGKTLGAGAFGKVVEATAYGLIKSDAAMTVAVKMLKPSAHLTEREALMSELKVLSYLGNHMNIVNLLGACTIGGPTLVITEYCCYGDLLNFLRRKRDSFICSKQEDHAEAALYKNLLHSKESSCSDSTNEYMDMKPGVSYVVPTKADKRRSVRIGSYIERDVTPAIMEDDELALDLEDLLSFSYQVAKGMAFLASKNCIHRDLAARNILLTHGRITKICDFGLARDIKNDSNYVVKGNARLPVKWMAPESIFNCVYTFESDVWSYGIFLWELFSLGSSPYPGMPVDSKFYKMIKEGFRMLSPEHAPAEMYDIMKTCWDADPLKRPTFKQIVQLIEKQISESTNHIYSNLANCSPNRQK

B-Raf V600E = target: T5, B-Raf V600E (Homo sapiens, UniProt P15056, V600E); experiment: AlphaScreen kinase assay, B-Raf V600E; conditions: read-out: IC50, activity toward kinase B-Raf V600E
T5 construct: P4254. pFastBacBD-CDC37 BRAF D437-K722-X, V600E; His6 with pFastBac HT leader (TEV site) (N); made in house; host or cells: Sf9 (baculovirus; chaperone CDC37 co-expressed)
T5 sequence (P15056 with tags, fused parts or gaps V600E): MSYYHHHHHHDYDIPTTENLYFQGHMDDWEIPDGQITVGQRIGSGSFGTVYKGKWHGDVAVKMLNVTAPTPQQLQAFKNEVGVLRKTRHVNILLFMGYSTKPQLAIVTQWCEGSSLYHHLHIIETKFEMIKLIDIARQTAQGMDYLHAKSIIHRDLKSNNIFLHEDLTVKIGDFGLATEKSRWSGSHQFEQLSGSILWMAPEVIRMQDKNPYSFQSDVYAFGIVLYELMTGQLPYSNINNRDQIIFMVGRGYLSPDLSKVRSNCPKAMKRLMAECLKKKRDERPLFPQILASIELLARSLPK

Fms = target: T6, Fms (Homo sapiens, UniProt P07333); experiment: AlphaScreen kinase assay, Fms; conditions: read-out: IC50, activity toward kinase Fms
T6 construct: purchased Upstate Biotechnology
T6 sequence (P07333 20-972): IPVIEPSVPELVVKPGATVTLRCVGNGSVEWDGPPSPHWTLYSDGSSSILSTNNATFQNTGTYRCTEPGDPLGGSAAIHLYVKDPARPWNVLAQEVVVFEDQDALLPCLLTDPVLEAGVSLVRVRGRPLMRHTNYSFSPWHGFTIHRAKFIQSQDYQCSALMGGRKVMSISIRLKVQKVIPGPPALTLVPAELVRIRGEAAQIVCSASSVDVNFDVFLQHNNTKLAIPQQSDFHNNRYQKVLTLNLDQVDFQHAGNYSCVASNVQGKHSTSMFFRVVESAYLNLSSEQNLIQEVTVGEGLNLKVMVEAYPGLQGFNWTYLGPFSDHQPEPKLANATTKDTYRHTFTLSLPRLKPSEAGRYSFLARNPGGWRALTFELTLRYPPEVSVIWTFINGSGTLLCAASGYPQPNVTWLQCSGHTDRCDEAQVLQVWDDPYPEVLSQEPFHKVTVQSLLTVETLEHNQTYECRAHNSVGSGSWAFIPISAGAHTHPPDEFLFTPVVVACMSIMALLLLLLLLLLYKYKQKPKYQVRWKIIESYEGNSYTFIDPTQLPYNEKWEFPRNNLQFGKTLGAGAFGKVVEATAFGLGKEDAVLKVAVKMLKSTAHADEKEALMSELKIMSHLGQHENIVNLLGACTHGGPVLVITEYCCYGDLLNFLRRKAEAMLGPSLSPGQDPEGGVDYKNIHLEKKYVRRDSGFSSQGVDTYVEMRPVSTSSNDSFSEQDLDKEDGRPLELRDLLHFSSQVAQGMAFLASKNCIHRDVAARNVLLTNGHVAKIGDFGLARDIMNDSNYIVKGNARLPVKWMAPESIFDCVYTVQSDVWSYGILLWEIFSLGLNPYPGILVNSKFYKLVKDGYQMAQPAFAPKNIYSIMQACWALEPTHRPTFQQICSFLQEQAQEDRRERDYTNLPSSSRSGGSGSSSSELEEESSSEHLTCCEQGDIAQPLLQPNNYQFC

c-Raf-1 = target: T7, c-Raf-1 (Homo sapiens, UniProt P04049); experiment: AlphaScreen kinase assay, c-Raf-1; conditions: read-out: IC50, activity toward kinase c-Raf-1
T7 construct: purchased Upstate Biotechnology
T7 sequence (P04049 whole entry): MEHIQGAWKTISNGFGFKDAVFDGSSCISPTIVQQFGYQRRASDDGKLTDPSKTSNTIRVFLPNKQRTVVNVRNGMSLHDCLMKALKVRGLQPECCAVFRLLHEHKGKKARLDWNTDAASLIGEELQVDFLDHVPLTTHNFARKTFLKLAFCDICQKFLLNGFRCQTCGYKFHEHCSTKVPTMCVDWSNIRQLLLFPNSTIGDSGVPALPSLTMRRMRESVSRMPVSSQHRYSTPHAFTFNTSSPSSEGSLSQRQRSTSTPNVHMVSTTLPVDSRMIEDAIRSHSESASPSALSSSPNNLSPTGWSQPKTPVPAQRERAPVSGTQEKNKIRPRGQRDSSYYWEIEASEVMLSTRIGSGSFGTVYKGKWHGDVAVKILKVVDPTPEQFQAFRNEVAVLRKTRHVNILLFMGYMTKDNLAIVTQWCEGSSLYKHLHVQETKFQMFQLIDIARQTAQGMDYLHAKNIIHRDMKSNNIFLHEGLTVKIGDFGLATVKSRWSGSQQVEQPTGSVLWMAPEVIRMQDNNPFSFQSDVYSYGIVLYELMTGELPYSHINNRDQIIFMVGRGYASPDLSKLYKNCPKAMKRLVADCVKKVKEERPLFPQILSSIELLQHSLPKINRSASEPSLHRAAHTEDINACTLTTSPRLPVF

FGFR1 = target: T8, FGFR1 (Homo sapiens, UniProt P11362, C488A/C584S); experiment: AlphaScreen kinase assay, FGFR1; conditions: read-out: IC50, activity toward kinase FGFR
T8 construct: P1351.pET N6 BI-PTP FGFR A458-E765-X C488A, C584S; made in house; host or cells: E. coli (PTP1B co-expressed)
T8 sequence (P11362 458-765 C488A/C584S): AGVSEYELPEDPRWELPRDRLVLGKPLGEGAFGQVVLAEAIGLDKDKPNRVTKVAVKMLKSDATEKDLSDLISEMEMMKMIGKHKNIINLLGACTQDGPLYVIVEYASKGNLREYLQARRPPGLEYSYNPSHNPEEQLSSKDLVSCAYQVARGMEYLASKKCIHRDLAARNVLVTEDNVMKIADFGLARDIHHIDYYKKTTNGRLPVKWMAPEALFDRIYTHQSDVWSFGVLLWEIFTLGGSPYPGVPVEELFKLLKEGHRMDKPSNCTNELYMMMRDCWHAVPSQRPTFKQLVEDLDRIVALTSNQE

Measured: IC50

T1 sequence (P45983 whole entry): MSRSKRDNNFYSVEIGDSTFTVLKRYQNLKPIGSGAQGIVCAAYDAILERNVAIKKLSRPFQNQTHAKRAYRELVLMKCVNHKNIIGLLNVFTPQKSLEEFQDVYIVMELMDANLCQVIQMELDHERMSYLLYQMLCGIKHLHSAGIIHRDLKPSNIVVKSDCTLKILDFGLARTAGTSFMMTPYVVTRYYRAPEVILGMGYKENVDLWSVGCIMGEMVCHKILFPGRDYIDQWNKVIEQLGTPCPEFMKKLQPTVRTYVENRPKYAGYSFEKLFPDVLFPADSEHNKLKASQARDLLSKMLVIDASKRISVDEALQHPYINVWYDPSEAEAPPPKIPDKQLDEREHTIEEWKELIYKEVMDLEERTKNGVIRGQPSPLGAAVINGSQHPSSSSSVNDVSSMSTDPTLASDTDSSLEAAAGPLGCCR

O=C(c1c[nH]c2ncc(-c3cccnc3)cc12)c1cccc2c1ccn2COCc1ccccc1 [Compound P-1523, (1-Benzyloxymethyl-1H-indol-4-yl)-(5-pyridin-3-yl-1H-pyrrolo[2,3-b]pyridin-3-yl)-methanone]
≤ 10 µM: Jnk1 | Flt1

CCCS(=O)(=O)Nc1ccc(F)c(C(=O)c2c[nH]c3ncc(-c4ccc(OC)nc4)cc23)c1F [Compound P-1879, Propane-1-sulfonic acid {2,4-difluoro-3-[5-(6-methoxy-pyridin-3-yl)-1H-pyrrolo[2,3-b]pyridine-3-carbonyl]-phenyl}-amide]
not listed: Flt1 | FGFR1
≤ 10 µM: all other assays above

CCCS(=O)(=O)Nc1ccc(F)c(C(=O)c2c[nH]c3ncc(-c4cccc(CN5CCOCC5)c4)cc23)c1F [Compound P-1878, Propane-1-sulfonic acid {2,4-difluoro-3-[5-(3-morpholin-4-ylmethyl-phenyl)-1H-pyrrolo[2,3-b]pyridine-3-carbonyl]-phenyl}-amide]
not listed: Flt1 | FGFR1
≤ 10 µM: all other assays above

CCCS(=O)(=O)Nc1cccc(C(=O)c2c[nH]c3ncc(-c4ccc(F)cc4)cc23)c1 [Compound P-1639]
≤ 10 µM: B-Raf | Jnk1 | B-Raf V600E | Fms

CCCCNC(=O)Nc1cccc(C(=O)c2c[nH]c3ncc(Br)cc23)c1 [Compound P-1596, 1-[3-(5-bromo-1H-pyrrolo[2,3-b]pyridine-3-carbonyl)-phenyl]-3-butyl-urea]
≤ 10 µM: B-Raf | Jnk1 | Flt1 | B-Raf V600E | Fms

COc1ccc(NC(=O)Nc2cccc(C(=O)c3c[nH]c4ncccc34)c2)cc1OC [Compound P-1708, 1-(3,4-Dimethoxy-phenyl)-3-[3-(1H-pyrrolo[2,3-b]pyridine-3-carbonyl)-phenyl]-urea]
≤ 10 µM: B-Raf | Jnk1 | Kit | B-Raf V600E | Fms

CCCS(=O)(=O)Nc1cccc(C(=O)c2c[nH]c3ncc(-c4cccnc4)cc23)c1 [Compound P-1638]
≤ 10 µM: B-Raf | Jnk1 | B-Raf V600E | Fms

O=C(c1ccc(Cl)cc1Cl)c1c[nH]c2ncc(-c3cccnc3)cc12 [Compound P-1556]
not listed: Kit | c-Raf-1
≤ 10 µM: all other assays above

CCCCNC(=O)Nc1ccc(F)c(C(=O)c2c[nH]c3ncc(-c4cccc(OC(F)(F)F)c4)cc23)c1 [Compound P-1660, 1-Butyl-3-{4-fluoro-3-[5-(3-trifluoromethoxy-phenyl)-1H-pyrrolo[2,3-b]pyridine-3-carbonyl]-phenyl}-urea]
≤ 10 µM: B-Raf | Jnk1 | B-Raf V600E | Fms

CCCS(=O)(=O)Nc1ccc(F)c(C(=O)c2c[nH]c3ncc(N4CCC(C)CC4)cc23)c1F [Compound P-0860, propane-1-sulfonic acid {2,4-difluoro-3-[5-(4-methyl-piperidin-1-yl)-1H-pyrrolo[2,3-b]pyridine-3-carbonyl]-phenyl}-amide]
not listed: Flt1 | Fms
≤ 10 µM: all other assays above

CCCS(=O)(=O)Nc1cccc(C(=O)c2c[nH]c3ncc(-c4cccnc4)cc23)c1C [Compound P-1631]
≤ 10 µM: B-Raf | Jnk1 | B-Raf V600E | Fms

COc1ccc(NC(=O)Nc2cccc(C(=O)c3c[nH]c4ncc(-c5cccnc5)cc34)c2)cc1OC [Compound P-1725, 1-(3,4-Dimethoxy-phenyl)-3-[3-(5-pyridin-3-yl-1H-pyrrolo[2,3-b]pyridine-3-carbonyl)-phenyl]-urea]
≤ 10 µM: B-Raf | Jnk1 | B-Raf V600E | Fms

CCCS(=O)(=O)Nc1ccc(F)c(C(=O)c2c[nH]c3ncc(-c4cccc(C(N)=O)c4)cc23)c1F [Compound P-1549, 3-{3-[2,6-Difluoro-3-(propane-1-sulfonylamino)-benzoyl]-1H-pyrrolo[2,3-b]pyridin-5-yl}-benzamide]
not listed: c-Raf-1
≤ 10 µM: all other assays above

CCCCNC(=O)Nc1ccc(F)c(C(=O)c2c[nH]c3ncc(Br)cc23)c1 [Compound P-1637, 1-[3-(5-Bromo-1H-pyrrolo[2,3-b]pyridine-3-carbonyl)-4-fluoro-phenyl]-3-butyl-urea]
≤ 10 µM: B-Raf | Jnk1 | B-Raf V600E | Fms

CCCS(=O)(=O)Nc1ccc(F)c(C(=O)c2c[nH]c3ncc(-c4cccc(N5CCOCC5)c4)cc23)c1F [Compound P-1873, Propane-1-sulfonic acid {2,4-difluoro-3-[5-(3-morpholin-4-yl-phenyl)-1H-pyrrolo[2,3-b]pyridine-3-carbonyl]-phenyl}-amide]
not listed: Flt1 | FGFR1
≤ 10 µM: all other assays above

O=C(NCc1ccccc1)Nc1cccc(C(=O)c2c[nH]c3ncc(Br)cc23)c1 [Compound P-1553, 1-Benzyl-3-[3-(5-bromo-1H-pyrrolo[2,3-b]pyridine-3-carbonyl)-phenyl]-urea]
not listed: c-Raf-1 | FGFR1
≤ 10 µM: all other assays above

CC(C)c1ccc(S(=O)(=O)Nc2ccc(F)c(C(=O)c3c[nH]c4ncc(Cl)cc34)c2F)cc1 [Compound P-1839, N-[3-(5-chloro-1H-pyrrolo[2,3-b]pyridine-3-carbonyl)-2,4-difluoro-phenyl]-4-isopropyl-benzenesulfonamide]
not listed: Flt1 | FGFR1
≤ 10 µM: all other assays above
